Measured values: patent publication US8975398B2, “NAMPT inhibitors” (AbbVie Inc., priority 2012, dated 2015)

Tested on: PC3 cells
Experiment: NAMPT Cell Proliferation Assay (Cell Titer Glo; also performed in the presence of 0.3 mM nicotinamide mononucleotide)
Type: cell-based
Settings: Homo sapiens, PC-3, 120 h, 5 days incubation, cell viability by Cell Titer Glo
Description: NAMPT Cell Proliferation Assay
PC3 cells were seeded in 96-well black plates (Corning #3904) at 500 cells/well in 90 μl of RPMI media containing 10% heat-inactivated FBS and incubated overnight at 37° C. and 5% CO2 to allow cells to attach to wells. The following day, test compounds were serially diluted in neat DMSO to 1000× final concentrations prior to dilution with RPMI media to 10× and 1% DMSO. Ten μL of the 10× compounds were then transferred to wells containing cells to produce a dose response of 10-fold dilutions from 10 μM to 1×10^−5 μM. Cells were incubated for 5 days at 37° C. and 5% CO2, then cell viability was measured using Cell Titer Glo reagent (Promega #G7571). Percent inhibition values were calculated and fitted to a sigmoidal dose response curves using Assay Explorer software to determine IC50s.

IC50 [nM] | Compound
8.47 | CC(C)CC(=O)N1CCC(c2ccc(NC(=O)C3CN(c4cccnn4)C3)cc2F)CC1 [Example 887, N-{3-fluoro-4-[1-(3-methylbutanoyl)piperidin-4-yl]phenyl}-1-(pyridazin-3-yl)azetidine-3-carboxamide]
9.76 | O=C(Nc1ccc(C2CCN(C(=O)CC3CC3)CC2)c(F)c1)C1CN(c2cccnn2)C1 [Example 888, N-{4-[1-(cyclopropylacetyl)piperidin-4-yl]-3-fluorophenyl}-1-(pyridazin-3-yl)azetidine-3-carboxamide]
2.85 | O=C(Nc1ccc(C2(O)CCN(C(=O)c3ccccc3F)CC2)cc1)C1CN(c2cccnn2)C1 [Example 889, N-{4-[1-(2-fluorobenzoyl)-4-hydroxypiperidin-4-yl]phenyl}-1-(pyridazin-3-yl)azetidine-3-carboxamide]
4.09 | CC(C)(C)C(=O)N1CCC(O)(c2ccc(NC(=O)C3CN(c4cccnn4)C3)cc2)CC1 [Example 890, N-{4-[1-(2,2-dimethylpropanoyl)-4-hydroxypiperidin-4-yl]phenyl}-1-(pyridazin-3-yl)azetidine-3-carboxamide]
65.6 | Cc1ccc(N2CC(C(=O)Nc3ccc(-c4cnn(CC5(C)CCOCC5)c4)cc3)C2)nn1 [Example 891, 1-(6-methylpyridazin-3-yl)-N-(4-{1-[(4-methyltetrahydro-2H-pyran-4-yl)methyl]-1H-pyrazol-4-yl}phenyl)azetidine-3-carboxamide]
146 | Cc1ccc(N2CC[C@H](C(=O)Nc3ccc(C4CCN(C(=O)c5ccccc5F)CC4)cc3)C2)nn1 [Example 892, (3S)—N-{4-[1-(2-fluorobenzoyl)piperidin-4-yl]phenyl}-1-(6-methylpyridazin-3-yl)pyrrolidine-3-carboxamide]
681 | Cc1ccc(N2CC[C@H](C(=O)Nc3ccc(C4CCN(C(=O)c5ccccc5)CC4)cc3)C2)nn1 [Example 893, (3S)—N-[4-(1-benzoylpiperidin-4-yl)phenyl]-1-(6-methylpyridazin-3-yl)pyrrolidine-3-carboxamide]
752 | Cc1ccc(N2CC[C@H](C(=O)Nc3ccc(C4CCN(C(=O)C(C)(C)C)CC4)cc3)C2)nn1 [Example 894, (3S)—N-{4-[1-(2,2-dimethylpropanoyl)piperidin-4-yl]phenyl}-1-(6-methylpyridazin-3-yl)pyrrolidine-3-carboxamide]
2.15 | O=C(Nc1ccc(CC2CCN(C(=O)c3ccccc3)CC2)cc1)C1CN(c2cccnn2)C1 [Example 895, N-{4[(1-benzoylpiperidin-4-yl)methyl]phenyl}-1-(pyridazin-3-yl)azetidine-3-carboxamide]
1.09 | O=C(Nc1ccc(CC2CCN(C(=O)c3ccccc3F)CC2)cc1)C1CN(c2cccnn2)C1 [Example 896, N-(4-{[1-(2-fluorobenzoyl)piperidin-4-yl]methyl}phenyl)-1-(pyridazin-3-yl)azetidine-3-carboxamide]
1.56 | CC(C)(C)C(=O)N1CCC(Cc2ccc(NC(=O)C3CN(c4cccnn4)C3)cc2)CC1 [Example 897, N-(4-{[1-(2,2-dimethylpropanoyl)piperidin-4-yl]methyl}phenyl)-1-(pyridazin-3-yl)azetidine-3-carboxamide]
0.851 | CC(C)(C)CC(=O)N1CCC(Cc2ccc(NC(=O)C3CN(c4cccnn4)C3)cc2)CC1 [Example 898, N-(4-{[1-(3,3-dimethylbutanoyl)piperidin-4-yl]methyl}phenyl)-1-(pyridazin-3-yl)azetidine-3-carboxamide]
0.401 | CCC(CC)C(=O)N1CCC(Cc2ccc(NC(=O)C3CN(c4cccnn4)C3)cc2)CC1 [Example 899, N-(4-{[1-(2-ethylbutanoyl)piperidin-4-yl]methyl}phenyl)-1-(pyridazin-3-yl)azetidine-3-carboxamide]
2.24 | O=C(Nc1ccc(CC2CCN(C(=O)CCC(F)(F)F)CC2)cc1)C1CN(c2cccnn2)C1 [Example 900, 1-(pyridazin-3-yl)-N-(4-{[1-(4,4,4-trifluorobutanoyl)piperidin-4-yl]methyl}phenyl)azetidine-3-carboxamide]
